# Reference: patent US20250186442A1, “Obicetrapib and Ezetimibe Combination Treatment and Fixed Dose Pharmaceutical Compositions” (NewAmsterdam Pharma B.V., priority 2022, published 2025)
# How the values were obtained:
# QTcF = details: TA-8995-04; cited from earlier work
# [1] = patients; daily dosing of 10 mg for 12 weeks, alone and with 2 different statins; cited from earlier work
# [2] = TA-8995-07, healthy males; cited from earlier work
# Lp(a) = details: TA-8995-06; following 12 weeks of treatment; cited from earlier work
# Solubility in water = type: physicochemical; details: in water at 20° C.
# Description: Solubility is especially challenging with obicetrapib. […] It would be desirable to have a solid form of obicetrapib that would deliver a larger amount of obicetrapib.
# [3] = test system: critical physiological systems; details: doses up to 300 mg/kg in rats; cited from earlier work
# ApoA1 = details: TA-8995-03; 10 mg daily dose, mild dyslipidemia; cited from earlier work
# LDL-C [4] = experiment: ROSE2 phase 2b clinical trial - LDL-C; type: in vivo, human; details: for LDL-C Change from Baseline to Day 28, Mean / LDL-C Change from Baseline to Day 28, Median / LDL-C Change from Baseline to Day 84, Mean / LDL-C Change from Baseline to Day 84, Median / LDL-C Day 28, Mean / LDL-C Day 28, Median / LDL-C Day 84, Mean / LDL-C Day 84, Median / LDL-C Percent Change from Baseline to Day 28 (%), Mean / LDL-C Percent Change from Baseline to Day 28 (%), Median / LDL-C Percent Change from Baseline to Day 84 (%), Mean / LDL-C Percent Change from Baseline to Day 84 (%), Median: obicetrapib 10 mg, ezetimibe 10 mg
# Experimental: The primary objective of this study is to evaluate the effect of obicetrapib 10 mg+ezetimibe 10 mg combination therapy compared with placebo, when used as an adjunct to high-intensity statin therapy, on LDL-C at Day 84.
# The secondary objectives of this study include the following, in hierarchical order: • To evaluate the effect of obicetrapib 10 mg monotherapy compared with placebo, when used as an adjunct to high-intensity statin therapy, on LDL-C at Day 84; • To evaluate the effect of obicetrapib 10 mg+ezetimibe 10 mg combination therapy compared with placebo, when used as an adjunct to high-intensity statin therapy, on ApoB at Day 84; and • To evaluate the effect of obicetrapib 10 mg monotherapy compared with placebo, when used as an adjunct to high-intensity statin therapy, on ApoB at Day 84.
# This study will be a placebo-controlled, double-blind, randomized, Phase 2 study to evaluate the efficacy, safety, and tolerability of obicetrapib 10 mg, both in combination with ezetimibe 10 mg and as monotherapy, as an adjunct to high-intensity statin therapy. This study will take place at approximately 20 sites in the United States.
# Up to 2 weeks after the Screening Visit, participants will return to the site on Day 1 (Visit 2) and confirm study eligibility before being randomized and beginning treatment. Approximately 114 eligible participants (38 participants per treatment group) will be randomized in a 1:1:1 ratio to 1 of the following treatment groups: • Combination therapy: Obicetrapib 10 mg+ezetimibe 10 mg (administered as one 10 mg obicetrapib tablet and one 10 mg ezetimibe capsule); • Obicetrapib monotherapy: Obicetrapib 10 mg (administered as one 10 mg obicetrapib tablet and 1 placebo capsule); or • Placebo (administered as 1 placebo tablet and 1 placebo capsule).
# During the 12-week Treatment Period, the assigned study drugs will be administered by the participants orally with water, once daily on Day 1 to Day 84 at approximately the same time each morning. Participants will return to the site on Day 28 (+2 days), Day 84 (+2 days), and Day 112 (+2 days) for efficacy, safety, and pharmacokinetic (PK) assessments. Participants, Investigators, the Clinical Research Organization (CRO), and the Sponsor will be blinded to all lipid results from Day 1 (Visit 2) for the first participant until all enrolled participants complete the Day 84 (End of Treatment) visit or are withdrawn from the study, in order to protect blinding to treatment assignment.
# The primary efficacy endpoint is the percent change from Day 1 to Day 84 in LDL-C for the obicetrapib 10 mg+ezetimibe 10 mg combination treatment group compared with the placebo group.
# The secondary efficacy endpoints include the following, in hierarchical order: • Percent change from Day 1 to Day 84 in LDL-C for the obicetrapib 10 mg monotherapy • treatment group compared with the placebo group; • Percent change from Day 1 to Day 84 in ApoB for the obicetrapib 10 mg+ezetimibe 10 mg • combination treatment group compared with the placebo group; and • Percent change from Day 1 to Day 84 in ApoB for the obicetrapib 10 mg monotherapy treatment group compared with the placebo group.
# The exploratory efficacy endpoints include the following: • Percent change from Day 1 to Day 84 in non-HDL-C, VLDL-C, HDL-C, TG, ApoE, Lp(a), and HDL-ApoE for the obicetrapib 10 mg+ezetimibe 10 mg combination treatment group compared with the placebo group and for the obicetrapib 10 mg monotherapy treatment group compared with the placebo group; and • Proportion of participants at Day 84 that achieve LDL-C<2.6 mmol/L (<100 mg/dL), LDL-C<1.8 mmol/L (<70 mg/dL), and LDL-C<1.3 mmol/L (<50 mg/dL) for the obicetrapib 10 mg+ezetimibe 10 mg combination treatment group compared with the placebo group and for the obicetrapib 10 mg monotherapy treatment group compared with the placebo group. […]
# HDL-C = details: TA-8995-03; 10 mg daily dose, mild dyslipidemia; cited from earlier work
# LDL-C [5] = details: cited from earlier work
structure (smiles),measurement,setting,value
"CCOC(=O)N1c2ccc(C(F)(F)F)cc2[C@@H](N(Cc2cc(C(F)(F)F)cc(C(F)(F)F)c2)c2ncc(OCCCC(=O)O)cn2)C[C@H]1CC [Obicetrapib, {4-[(2-{[3,5-bis(trifluoromethyl)benzyl][(2R,4S)-1-(ethoxycarbonyl)-2-ethyl-6-(trifluoromethyl)-1,2,3,4-tetrahydroquinolin-4-yl]amino}pyrimidin-5-yl)oxy]butanoic acid}]",effect on the QTcF,QTcF,no effect
same,tolerability,[1],well tolerated
same,absorption,[2],steadily absorbed
same,principal route of excretion,[2],in the feces
same,Lp(a) levels,Lp(a),statistically significant reduction
same,solubility,Solubility in water,< 100 µg/mL
same,adverse effect on critical physiological systems,[3],no adverse effect
same,ApoA1 increase,ApoA1,63.4%
same,"LDL-C Change from Baseline to Day 28, Mean",LDL-C [4]; Exploratory Population,-43.0 mg/dL
same,"LDL-C Change from Baseline to Day 28, Median",LDL-C [4]; Exploratory Population,-45.0 mg/dL
same,"LDL-C Change from Baseline to Day 84, Mean",LDL-C [4]; Exploratory Population,-39.9 mg/dL
same,"LDL-C Change from Baseline to Day 84, Median",LDL-C [4]; Exploratory Population,-38.5 mg/dL
same,"LDL-C Day 28, Mean",LDL-C [4]; Exploratory Population,57.6 mg/dL
same,"LDL-C Day 28, Median",LDL-C [4]; Exploratory Population,51.5 mg/dL
same,"LDL-C Day 84, Mean",LDL-C [4]; Exploratory Population,60.7 mg/dL
same,"LDL-C Day 84, Median",LDL-C [4]; Exploratory Population,55.5 mg/dL
same,"LDL-C Percent Change from Baseline to Day 28 (%), Mean",LDL-C [4]; Exploratory Population,−43.59%
same,"LDL-C Percent Change from Baseline to Day 28 (%), Median",LDL-C [4]; Exploratory Population,−43.90%
same,"LDL-C Percent Change from Baseline to Day 84 (%), Mean",LDL-C [4]; Exploratory Population,−39.35%
same,"LDL-C Percent Change from Baseline to Day 84 (%), Median",LDL-C [4]; Exploratory Population,−43.50%
same,median reduction in LDL-C,"LDL-C [4]; ROSE2 phase 2b (NCT05266586), obicetrapib 10 mg with or without ezetimibe 10 mg",39%
same,"LDL-C Change from Baseline to Day 28, Mean",LDL-C [4]; mITT Population,-33.2 mg/dL
same,"LDL-C Change from Baseline to Day 28, Median",LDL-C [4]; mITT Population,-35.0 mg/dL
same,"LDL-C Change from Baseline to Day 84, Mean",LDL-C [4]; mITT Population,-21.3 mg/dL
same,"LDL-C Change from Baseline to Day 84, Median",LDL-C [4]; mITT Population,-29.5 mg/dL
same,"LDL-C Day 28, Mean",LDL-C [4]; mITT Population,70.3 mg/dL
same,"LDL-C Day 28, Median",LDL-C [4]; mITT Population,56.0 mg/dL
same,"LDL-C Day 84, Mean",LDL-C [4]; mITT Population,82.7 mg/dL
same,"LDL-C Day 84, Median",LDL-C [4]; mITT Population,65.0 mg/dL
same,"LDL-C Percent Change from Baseline to Day 28 (%), Mean",LDL-C [4]; mITT Population,−32.21%
same,"LDL-C Percent Change from Baseline to Day 28 (%), Median",LDL-C [4]; mITT Population,−41.70%
same,"LDL-C Percent Change from Baseline to Day 84 (%), Mean",LDL-C [4]; mITT Population,−18.92%
same,"LDL-C Percent Change from Baseline to Day 84 (%), Median",LDL-C [4]; mITT Population,−32.35%
same,HDL-C efflux capacity,HDL-C,significant increase
same,HDL-C increase,HDL-C,179.0%
same,LDL-C reduction,"LDL-C [5]; TA-8995-03, 10 mg daily dose, mild dyslipidemia",45.4%
same,additional reduction in LDL-C,LDL-C [5]; obicetrapib 10 mg on top of atorvastatin 20 mg,50.3%
